Key:
[1] = molecular target: T1, 5-HT2C receptor (Homo sapiens, UniProt P28335); experiment: cell-based; type: cell-based; conditions: Ca2+ flux
T1 sequence (P28335 33-458): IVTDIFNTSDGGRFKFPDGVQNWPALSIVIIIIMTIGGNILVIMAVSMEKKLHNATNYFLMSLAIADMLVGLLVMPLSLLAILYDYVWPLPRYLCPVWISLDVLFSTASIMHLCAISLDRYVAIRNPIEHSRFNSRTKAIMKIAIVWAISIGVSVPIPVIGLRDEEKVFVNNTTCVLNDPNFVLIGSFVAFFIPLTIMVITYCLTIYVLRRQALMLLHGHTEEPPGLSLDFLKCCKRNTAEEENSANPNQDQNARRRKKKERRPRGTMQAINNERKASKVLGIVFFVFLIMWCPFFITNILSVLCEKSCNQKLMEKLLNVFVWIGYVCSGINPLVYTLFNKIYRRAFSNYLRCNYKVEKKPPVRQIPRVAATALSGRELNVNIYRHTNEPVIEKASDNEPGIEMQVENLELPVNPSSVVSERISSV

[2] = Metabolic stability in human liver microsomes (HLM); design: microsomal CLint / half-life: dose or concentration left out as unconfirmed; conditions: for half-life / microsomal CLint: both, human, pooled human liver microsomes, pH 7.4
[3] = molecular target: T2, 5-HT1A (Homo sapiens, UniProt P08908); experiment: FLIPR Ca2+ flux agonist assay at 5-HT1A; type: cell-based; conditions: for 5-HT1A % Act @ Max Dose: Ca2+ flux, CHO cells
T2 construct: host or cells: CHO cells
T2 sequence (P08908 1-422): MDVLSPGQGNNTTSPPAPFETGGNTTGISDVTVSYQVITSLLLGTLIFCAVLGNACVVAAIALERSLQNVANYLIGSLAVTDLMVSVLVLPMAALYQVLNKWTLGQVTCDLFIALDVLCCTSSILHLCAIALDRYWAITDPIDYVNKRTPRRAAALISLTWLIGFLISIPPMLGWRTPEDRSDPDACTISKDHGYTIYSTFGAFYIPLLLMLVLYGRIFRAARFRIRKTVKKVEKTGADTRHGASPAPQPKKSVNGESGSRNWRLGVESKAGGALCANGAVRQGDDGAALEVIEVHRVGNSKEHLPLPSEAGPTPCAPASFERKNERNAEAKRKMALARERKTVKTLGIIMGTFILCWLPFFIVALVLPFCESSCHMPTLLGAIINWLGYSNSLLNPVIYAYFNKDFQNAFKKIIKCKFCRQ

[4] = Plasma pharmacokinetics in rats after intravenous administration; conditions: for AUC(0-t) / C0 / half-life: male, Sprague Dawley, rat, plasma, iv, 1 mg/kg
[5] = molecular target: T3, 5-HT2B (Homo sapiens, UniProt P41595); experiment: FLIPR Ca2+ flux agonist assay at 5-HT2B; type: cell-based; conditions: for 5-HT2B % Act @ Max Dose: Ca2+ flux, HEK293, max dose
T3 construct: host or cells: HEK293

[6] = system: rat synaptosomes; experiment: Serotonin (5-HT) release from rat synaptosomes; type: biochemical, Male Sprague-Dawley rats; conditions: for EC50: rat synaptosomes preloaded with [3H]5-HT; for % Release @ Max Dose (10 μM) / 5-HT release potency/efficacy compared with analog (in words): rat synaptosomes
How it was run: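 Synaptosomes from male Sprague-Dawley rat brain (minus cerebellum, striatum) preloaded 2 h at 25° C with 5 nM [^3H]5-HT, with GBR12935, nomifensine and reserpine blocking DAT, NET and VMAT2. Exposed 10 min to compound in KPB with BSA, then filtered; release taken as loss of retained radioactivity.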

[7] = molecular target: 5-HT2A (Homo sapiens, UniProt P28223); experiment: 5-HT2A receptor radioligand binding ([3H]ketanserin)
Protocol: The binding affinities of disclosed compounds at the ketanserin binding site of the 5-HT2A receptor were determined in radioligand binding experiments.
Method. Affinity of the test compounds for the 5-HT2A receptor was determined in radioligand binding experiments with [^3H]ketanserin by WuXi AppTec (Hong Kong) Limited, using methods adapted from the literature and under conditions described in Table 4.

[8] = system: monoamine oxidase A and B (MAO-A and MAO-B); experiment: Stability in the presence of monoamine oxidases (human liver mitochondria preparation); design: half-life / microsomal CLint: dose or concentration left out as unconfirmed; conditions: for stability in the presence of MAO (in words): human liver mitochondria preparation; for Remaining (t = 60 min) / half-life / microsomal CLint: human liver mitochondria; for half-life / microsomal CLint: human, pH 7.4
Protocol: Liver Mitochondria Incubations. Human liver mitochondria (Xenotech H0610.M) were used.

[9] = human liver mitochondria 0.30 mg protein/mL, 37° C.

T3 sequence (P41595 whole entry, species assumed): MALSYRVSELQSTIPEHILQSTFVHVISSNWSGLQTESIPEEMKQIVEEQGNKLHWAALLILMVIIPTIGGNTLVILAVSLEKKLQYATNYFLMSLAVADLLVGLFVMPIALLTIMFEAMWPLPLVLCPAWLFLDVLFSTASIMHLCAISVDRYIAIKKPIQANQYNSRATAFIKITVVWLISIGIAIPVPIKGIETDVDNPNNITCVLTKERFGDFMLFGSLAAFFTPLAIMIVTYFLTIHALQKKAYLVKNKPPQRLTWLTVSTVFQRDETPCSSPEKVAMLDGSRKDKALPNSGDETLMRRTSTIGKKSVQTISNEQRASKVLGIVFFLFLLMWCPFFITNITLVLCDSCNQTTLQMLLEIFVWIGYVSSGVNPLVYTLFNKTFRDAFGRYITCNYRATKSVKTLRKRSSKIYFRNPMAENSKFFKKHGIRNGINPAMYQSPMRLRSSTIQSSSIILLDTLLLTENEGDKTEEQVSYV
5-HT2A, sequence (P28223 whole entry): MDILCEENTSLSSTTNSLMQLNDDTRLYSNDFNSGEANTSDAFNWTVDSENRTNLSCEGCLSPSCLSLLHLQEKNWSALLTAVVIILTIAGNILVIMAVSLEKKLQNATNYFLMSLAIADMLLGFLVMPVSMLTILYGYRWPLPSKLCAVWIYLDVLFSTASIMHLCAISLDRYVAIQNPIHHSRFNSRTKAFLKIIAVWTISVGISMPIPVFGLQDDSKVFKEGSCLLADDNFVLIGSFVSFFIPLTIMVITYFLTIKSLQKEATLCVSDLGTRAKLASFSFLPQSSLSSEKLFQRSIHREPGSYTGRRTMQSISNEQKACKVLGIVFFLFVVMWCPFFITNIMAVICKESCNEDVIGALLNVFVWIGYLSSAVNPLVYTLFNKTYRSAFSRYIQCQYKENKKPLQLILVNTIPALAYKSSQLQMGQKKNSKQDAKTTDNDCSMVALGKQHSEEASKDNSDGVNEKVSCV

## CN(C)CCc1c[nH]c2ccc(F)cc12 [Compound 5-F-DMT, reference compound]
[1]
  EC50: 0.00494 µM
  5-HT2C % Act @ Max Dose: 93.9%
[2]; HLM 0.50 mg protein/mL, NADPH, 37° C., 60 minutes
  t1/2: 4.6 min
[3]
  EC50: 5.72 µM
  5-HT1A % Act @ Max Dose: 72.9%
[4]
  AUC(0-t): 35.5 ng·h/mL
  C0: 338 ng/mL
  half-life: 4.8 min
[4]; rats, IV 1 mg/kg
  plasma half-life (in words): very short half-lives
[5]
  EC50: 0.00971 µM
  5-HT2B % Act @ Max Dose: 17.6%
[6]
  EC50: 0.0407 µM
  % Release @ Max Dose (10 μM): 81.44%
[7]
  Ki: 0.181 µM
[8]; [9]
  CLint(MAO): 266 µL/min/mg
  t1/2: 8.7 min
[8]
  stability in the presence of MAO (in words): rapidly metabolized by MAO
  Remaining (t = 60 min): 0.9%

## CCNCCc1c[nH]c2ccc(F)c(O)c12 [Compound 28, 3-(2-(ethylamino)ethyl)-5-fluoro-1H-indol-4-ol]
[1]
  EC50: 0.0697 µM
  5-HT2C % Act @ Max Dose: 99.03%
[2]
  half-life: 42.3 min
  microsomal CLint: 32.8 µL/min/mg
[3]
  EC50: 9.21 µM
  5-HT1A % Act @ Max Dose: 60.29%
[4]
  AUC(0-t): 86.7 ng·h/mL
  C0: 249 ng/mL
  half-life: 27.6 min
[5]
  EC50: 0.0386 µM
  5-HT2B % Act @ Max Dose: 19.83%
[6]
  5-HT release potency/efficacy compared with analog (in words): significantly more potent and efficacious than their non-fluorinated analogs
  EC50: 0.708 µM
  % Release @ Max Dose (10 μM): 73.6%
[7]
  Ki: 0.319 µM
[8]
  stability in the presence of MAO (in words): intermediate stability
  Remaining (t = 60 min): 46.4%
  half-life: 56.5 min
  microsomal CLint: 40.9 µL/min/mg

## CC(C)NCCc1c[nH]c2ccc(F)c(O)c12 [Compound 35, 5-fluoro-3-(2-(isopropylamino)ethyl)-1H-indol-4-ol]
[1]
  EC50: 0.324 µM
  5-HT2C % Act @ Max Dose: 74.81%
[2]
  half-life: 45.7 min
  microsomal CLint: 30.3 µL/min/mg
[3]
  EC50: 93.8 µM
  5-HT1A % Act @ Max Dose: 48.74%
[4]
  AUC(0-t): 126 ng·h/mL
  C0: 348 ng/mL
  half-life: 26.4 min
[5]
  EC50: 0.0959 µM
  5-HT2B % Act @ Max Dose: 27.19%
[6]
  5-HT release potency/efficacy compared with analog (in words): significantly more potent and efficacious than their non-fluorinated analogs
  EC50: 6.94 µM
  % Release @ Max Dose (10 μM): 53.2%
[7]
  Ki: 0.446 µM
[8]
  stability in the presence of MAO (in words): intermediate stability
  Remaining (t = 60 min): 22.8%
  half-life: 29 min
  microsomal CLint: 79.6 µL/min/mg

Source: patent publication US20260234107A1, “TRYPTAMINES AND METHODS OF TREATING MOOD DISORDERS” (priority 2022, published 2026)
